From the supplement of paper PMC10307832

Legend:
Assay in all cases: relative viability (nuclei count vs DMSO), 5 days (fraction); higher = more cells survive
SK-LU-1 = system: SK-LU-1
Outline: (§1)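 Each reported value is a median over duplicate plates. It expresses relative viability: treated-well nuclei count divided by vehicle-well nuclei count. Lung cancer cell lines in 1536-well plates were dosed by pin tool a day after seeding, alone with one drug or with a fixed anchor-drug dose plus five library-drug doses (not always all listed) in √10 steps, and nuclei were counted after 5 days.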

HCC-78 = system: HCC-78
Outline: as §1

SW 1573 = system: SW 1573
Outline: as §1

NCI-H1975 = system: NCI-H1975
Outline: as §1

LCLC-103H = system: LCLC-103H
Outline: as §1

NCI-H23 = system: NCI-H23
Outline: as §1

NCI-H3122 = system: NCI-H3122
Outline: as §1

LU99A = system: LU99A
Outline: as §1

RERF-LC-KJ = system: RERF-LC-KJ
Outline: as §1

LK-2 = system: LK-2
Outline: as §1

NCI-H2085 = system: NCI-H2085
Outline: as §1

ChaGo-K-1 = system: ChaGo-K-1
Outline: as §1

HCC-366 = system: HCC-366
Outline: as §1

SW 900 = system: SW 900
Outline: as §1

NCI-H2405 = system: NCI-H2405
Outline: as §1

NCI-H1666 = system: NCI-H1666
Outline: as §1

HCC-44 = system: HCC-44
Outline: as §1

EMC-BAC-2 = system: EMC-BAC-2
Outline: as §1

NCI-H1563 = system: NCI-H1563
Outline: as §1

EPLC-272H = system: EPLC-272H
Outline: as §1

LXF-289 = system: LXF-289
Outline: as §1

NCI-H2126 = system: NCI-H2126
Outline: as §1

HCC-827 = system: HCC-827
Outline: as §1

LOU-NH91 = system: LOU-NH91
Outline: as §1

## CC(C)Oc1cc(Nc2nc(N[C@@H](C)c3ccc(F)cn3)ncc2Cl)n[nH]1 [AZ23] + Nc1nc2[nH]cc(CCc3ccc(C(=O)N[C@@H](CCC(=O)O)C(=O)O)cc3)c2c(=O)[nH]1 [Pemetrexed] (partner 0.2 µM)
SK-LU-1; first compound 0.03162 µM
  relative viability: 1.13
SK-LU-1; first compound 0.3162 µM
  relative viability: 1.06
HCC-78; first compound 0.01 µM
  relative viability: 0.976
HCC-78; first compound 0.03162 µM
  relative viability: 0.902
HCC-78; first compound 0.3162 µM
  relative viability: 0.938
SW 1573; first compound 0.01 µM
  relative viability: 0.958
SW 1573; first compound 0.03162 µM
  relative viability: 0.792
SW 1573; first compound 0.3162 µM
  relative viability: 0.849
NCI-H1975; first compound 0.01 µM
  relative viability: 0.272
NCI-H1975; first compound 0.03162 µM
  relative viability: 0.296
NCI-H1975; first compound 0.3162 µM
  relative viability: 0.312
LCLC-103H; first compound 0.01 µM
  relative viability: 0.448
LCLC-103H; first compound 0.03162 µM
  relative viability: 0.433
LCLC-103H; first compound 0.3162 µM
  relative viability: 0.466
NCI-H23; first compound 0.03162 µM
  relative viability: 0.77
NCI-H23; first compound 0.3162 µM
  relative viability: 0.992
NCI-H3122; first compound 0.01 µM
  relative viability: 0.151
NCI-H3122; first compound 0.03162 µM
  relative viability: 0.199
NCI-H3122; first compound 0.3162 µM
  relative viability: 0.195
LU99A; first compound 0.01 µM
  relative viability: 0.146
LU99A; first compound 0.03162 µM
  relative viability: 0.199
LU99A; first compound 0.3162 µM
  relative viability: 0.209
RERF-LC-KJ; first compound 0.01 µM
  relative viability: 0.493
RERF-LC-KJ; first compound 0.03162 µM
  relative viability: 0.463
RERF-LC-KJ; first compound 0.3162 µM
  relative viability: 0.495
LK-2; first compound 0.03162 µM
  relative viability: 0.36
LK-2; first compound 0.3162 µM
  relative viability: 0.263
NCI-H2085; first compound 0.01 µM
  relative viability: 0.806
NCI-H2085; first compound 0.03162 µM
  relative viability: 0.907
NCI-H2085; first compound 0.3162 µM
  relative viability: 0.994
ChaGo-K-1; first compound 0.01 µM
  relative viability: 0.24
ChaGo-K-1; first compound 0.03162 µM
  relative viability: 0.256
ChaGo-K-1; first compound 0.3162 µM
  relative viability: 0.269
HCC-366; first compound 0.01 µM
  relative viability: 0.0994
HCC-366; first compound 0.03162 µM
  relative viability: 0.186
HCC-366; first compound 0.3162 µM
  relative viability: 0.171
SW 900; first compound 0.01 µM
  relative viability: 0.491
SW 900; first compound 0.3162 µM
  relative viability: 0.514
NCI-H2405; first compound 0.01 µM
  relative viability: 1.02
NCI-H2405; first compound 0.03162 µM
  relative viability: 1.04
NCI-H2405; first compound 0.3162 µM
  relative viability: 0.879
NCI-H1666; first compound 0.01 µM
  relative viability: 0.822
NCI-H1666; first compound 0.03162 µM
  relative viability: 0.837
NCI-H1666; first compound 0.3162 µM
  relative viability: 0.771
HCC-44; first compound 0.01 µM
  relative viability: 0.373
HCC-44; first compound 0.03162 µM
  relative viability: 0.66
HCC-44; first compound 0.3162 µM
  relative viability: 0.698
EMC-BAC-2; first compound 0.01 µM
  relative viability: 0.493
EMC-BAC-2; first compound 0.03162 µM
  relative viability: 0.46
EMC-BAC-2; first compound 0.3162 µM
  relative viability: 0.442
NCI-H1563; first compound 0.01 µM
  relative viability: 0.69
NCI-H1563; first compound 0.03162 µM
  relative viability: 0.934
NCI-H1563; first compound 0.3162 µM
  relative viability: 0.885
EPLC-272H; first compound 0.03162 µM
  relative viability: 0.322
EPLC-272H; first compound 0.3162 µM
  relative viability: 0.302
LXF-289; first compound 0.01 µM
  relative viability: 1.02
LXF-289; first compound 0.03162 µM
  relative viability: 0.974
LXF-289; first compound 0.3162 µM
  relative viability: 0.99
NCI-H2126; first compound 0.01 µM
  relative viability: 0.62
NCI-H2126; first compound 0.03162 µM
  relative viability: 0.695
NCI-H2126; first compound 0.3162 µM
  relative viability: 0.679
HCC-827; first compound 0.01 µM
  relative viability: 0.2
HCC-827; first compound 0.03162 µM
  relative viability: 0.27
HCC-827; first compound 0.3162 µM
  relative viability: 0.242
LOU-NH91; first compound 0.01 µM
  relative viability: 0.505
LOU-NH91; first compound 0.03162 µM
  relative viability: 0.386
LOU-NH91; first compound 0.3162 µM
  relative viability: 0.394
